These are literature values, as cited in patent publication US10961240B2, “Formulations of a compound modulating kinases” (Plexxikon Inc., priority 2017, dated 2021).

The subject of one data set is mouse melanoma models. The following applies: with tumor-specific CD8 T cells.
The subject of the next data set is TGCT. As to conditions: phase III.
For a further data set, the system named is microglia. As to conditions: sustained after intracerebral hemorrhage.
Data set [1] concerns neurofibromatosis affected mice.
The next data set concerns Hodgkin Lymphoma. As to conditions: heavily pretreated patient cohort.

As to `FC(F)(F)c1ccc(CNc2ccc(Cc3c[nH]c4ncc(Cl)cc34)cn2)cn1` [Compound I], the “control of tumor outgrowth” value in the data set with mouse melanoma models is “strongly promoted the control of tumor outgrowth”. Further, the “primary endpoint: tumor response measured by tumor size reduction” value in the data set on TGCT was “met its primary endpoint”. The tumor growth entry in the data set with MPNST xenograft (MPNST xenograft) was “significant suppression of tumor growth”. In addition, the “blockade of receptor tyrosine kinases” value with MPNST xenograft (MPNST xenograft samples) is “sustained blockade of c-Kit, c-Fms and PDGFRβ”. Moreover, the microglia depletion result in the data set on microglia is listed as “effectively depleted microglia”. In addition, the bone loss result in data set [1] is given as “prevented bone loss”. In the data set on Hodgkin Lymphoma, the efficacy entry is reported as “modest efficacy” and the safety profile entry is recorded as “manageable safety profile”.
